Experimental data published in patent US10266489B2, “Pyrrolic amide compound and preparation method and application thereof” (HitGen LTD, priority 2014, dated 2019).

Key:
Hep3B cells = assay: Determination of cell growth inhibition, CCK-8, Hep3B; format: cell-based; settings: Homo sapiens, Hep3B hepatoma cells, 72 hours, highest measured IC50 of single or multiple operations
Text: (§1) Test example 2 Cell determination-determination of cell growth inhibition Materials and reagents HepG2 cell strains, Hep3B cell strains, Huh7 cell strains and Li7 cell strains are purchased from Shanghai Institutes for Biological Sciences of Chinese Academy of Sciences; DMEM high glucose media and MEM media are purchased from Hyclone; fetal calf serum is purchased from Gibco Company; trypsin is purchased from Invitrogen Shanghai; CCK-8 kits are purchased from Beyotime Institute of Biotechnology; and other consumables such as cell-culture dishes and the like are purchased from Corning China. […]
(§2) comprising the steps: digesting HepG2 cells, Hep3B Huh7 cells and Li7 cells in logarithmic phases by using the trypsin; after counting the cells by taking uniform cell suspension, adjusting cell density to 1500 cells/pore by using a culture medium containing 10% of serum, and re-inoculating into a 96-pore cell culture plate, wherein the culture volume is 200 μL; incubating in a 5% CO2 incubator at a temperature of 37° C.; and culturing for 24 hours for experiments. […]
(§3) comprising the steps: taking the cells cultured for 24 hours from the incubator, sucking culture solution in the pore plate, adding 200 μL of compound solution prepared by using a culture medium containing 10% of the fetal calf serum into each pore, enabling five pores of each concentration to be parallel, setting DMSO at negative control, and incubating in the 5% CO2 incubator at a temperature of 37° C. for 72 hours for performing CCK-8 detection. […]
(§4) comprising the steps: taking a serum-free medium and a CCK-8 solution, and preparing a CCK-8 working solution according to a ratio of 10:1 (the process needs to be protected from light); taking the cells cultured for 72 hours from the incubator, sucking culture solution in the pore plate, adding 120 μL of the CCK-8 working solution into each pore, adding 120 μL of the CCK-8 working solution into a cell-free pore plate to serve as blank control, and incubating in the 5% CO2 incubator at a temperature of 37° C. for one hour (the process needs to be protected from light ); and […]
(§5) taking the pore plate from the incubator, sucking 100 μL of solution from each pore into a new 96-pore plate, and reading absorbancy at 450 nm (the process needs to he protected from light).
(§6) Tx: absorbancy measured in CCK-8 within 72 hours after compound effect
(§7) C: absorbancy measured m CCK-8 within 72 hours after culturing in negative control pores B: absorbancy measured CCK-8 in blank control pores
(§8) The compounds 1-19 prepared in the embodiments are operated in the above determination, and test results are shown in Table 3, wherein the highest measured IC50 values of the various compounds during single or multiple operations are classified as specified, as shown in Table 3: […]

Huh7 cells = assay: Determination of cell growth inhibition, CCK-8, Huh-7; format: cell-based; settings: Homo sapiens, Huh-7 hepatoma cells, 72 hours, highest measured IC50 of single or multiple operations
Text: as §1, §2, §3, §4, §5, §6, §7, §8

[1] = molecular target: T1, histone deacetylase 6 (HDAC6) (Homo sapiens, UniProt Q9UBN7); assay: Detection of enzyme viability of histone deacetylase 6 (fluorogenic substrate deacetylation); format: biochemical; settings: 0.35 ng/μL HDAC 6, 20 μM substrate, 37° C.
T1 construct: purchased BPS Bioscience 50076
T1 sequence (Q9UBN7 1-1215): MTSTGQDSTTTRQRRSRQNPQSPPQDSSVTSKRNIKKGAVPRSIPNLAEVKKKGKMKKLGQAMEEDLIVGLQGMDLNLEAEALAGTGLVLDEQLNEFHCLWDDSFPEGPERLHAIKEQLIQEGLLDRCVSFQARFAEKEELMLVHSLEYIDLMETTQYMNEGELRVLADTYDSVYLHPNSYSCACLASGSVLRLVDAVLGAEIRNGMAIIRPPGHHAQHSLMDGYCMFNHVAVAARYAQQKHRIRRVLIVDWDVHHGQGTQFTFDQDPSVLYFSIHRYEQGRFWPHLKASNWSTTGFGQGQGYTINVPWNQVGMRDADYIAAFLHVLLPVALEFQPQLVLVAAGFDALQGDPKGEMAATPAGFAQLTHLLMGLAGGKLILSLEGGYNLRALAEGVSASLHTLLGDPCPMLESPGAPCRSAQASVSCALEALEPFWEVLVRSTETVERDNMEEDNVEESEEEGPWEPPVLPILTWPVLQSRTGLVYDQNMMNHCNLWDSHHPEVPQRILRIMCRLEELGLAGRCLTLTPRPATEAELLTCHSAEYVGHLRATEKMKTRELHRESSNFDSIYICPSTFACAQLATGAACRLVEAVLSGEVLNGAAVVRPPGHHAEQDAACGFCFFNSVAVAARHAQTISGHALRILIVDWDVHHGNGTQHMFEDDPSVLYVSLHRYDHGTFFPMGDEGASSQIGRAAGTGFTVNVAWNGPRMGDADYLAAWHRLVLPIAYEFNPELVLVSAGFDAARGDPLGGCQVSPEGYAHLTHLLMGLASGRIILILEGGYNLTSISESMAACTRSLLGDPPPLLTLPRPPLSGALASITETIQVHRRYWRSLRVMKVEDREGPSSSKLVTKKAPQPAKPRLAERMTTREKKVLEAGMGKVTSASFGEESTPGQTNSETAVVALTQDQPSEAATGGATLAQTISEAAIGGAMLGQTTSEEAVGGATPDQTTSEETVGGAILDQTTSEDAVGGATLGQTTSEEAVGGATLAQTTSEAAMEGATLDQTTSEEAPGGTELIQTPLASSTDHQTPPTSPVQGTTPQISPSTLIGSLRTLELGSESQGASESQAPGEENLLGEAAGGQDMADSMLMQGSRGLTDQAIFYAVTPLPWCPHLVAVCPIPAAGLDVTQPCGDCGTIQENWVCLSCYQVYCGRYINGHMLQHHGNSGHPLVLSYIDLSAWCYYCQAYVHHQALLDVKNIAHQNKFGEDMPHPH
Text: HDAC inhibitory viabilities of the compounds in the present invention are detected in detection of substrate deacetylation.
A: Detection of enzyme viability of histone deacetylase 6 (#50076, BPS Bioscience):
Acetyl of HDAC 6 on a substrate is removed, so that the substrate is activated and can be affected by a subsequently added developing solution, and fluorophore is released. The size of a fluorescence signal reflects the viability of the HDAC 6. An IC50 detection method of the enzyme is disclosed in Chuping Xu, Elisabetta Soragni improved Histone Deacetylase Inhibitors as Therapeutics for the Neurdegenerative DiseaseEriedreich's Ataxia: A New Synthetic Route. A total reaction system (100 μL/well) contains 0.35 ng/μL of HDAC 6, 20 μM of substrate and compounds of different concentrations. The fluorescence signal is measured within 30 minutes after incubation at a temperature of 37° C., inhibitory effects of the compounds are determined from the obtained data and mapped with the compound concentrations to obtain a concentration response curve, and the IC50 value is fitted according to a four-parameter model.
The compounds 1-19 prepared in the embodiments are subjected to detection of enzyme viability of histone deacetylase 6 (i.e., HDAC6) according to the method above. Test results are shown in Table 2, wherein the measured IC50 values of the compounds are classified as specified, as shown in Table 2: […]

Li7 cells = assay: Determination of cell growth inhibition, CCK-8, Li-7; format: cell-based; settings: Li-7 hepatoma cells, 72 hours, highest measured IC50 of single or multiple operations
Text: as §1, §2, §3, §4, §5, §6, §7, §8

HepG2 cells = assay: Determination of cell growth inhibition, CCK-8, HepG2; format: cell-based; settings: Homo sapiens, HepG2 hepatoma cells, 72 hours, highest measured IC50 of single or multiple operations
Text: as §1, §2, §3, §4, §5, §6, §7, §8

SMILES	IC50 (Hep3B cells)	IC50 (Huh7 cells)	IC50 (HepG2 cells)	IC50 [1]	IC50 (Li7 cells)
N#Cc1ccc(S(=O)(=O)N2CC=C(C(=O)NO)C2)cc1 [Compound 1, N-hydroxy-1-((4-benzene-cyano)sulfonyl) 2,5-dihydro-1H-pyrrole-3-formamide]	> 10 µM	> 10 µM	> 10 µM	0.1 to 0.3 µM	> 10 µM
CC(=O)Nc1ccc(S(=O)(=O)N2CC=C(C(=O)NO)C2)cc1 [Compound 10, N-hydroxy-1-((4-acetamido-phenyl)sulfonyl) 2,5-dihydro-1H-pyrrole-3-formamide]	> 10 µM	> 10 µM	> 10 µM	< 0.1 µM	> 10 µM
O=C(NO)C1=CCN(S(=O)(=O)c2ccc(F)cc2)C1 [Compound 11, N-hydroxy-1-((4-fluoro-phenyl)sulfonyl) 2,5-dihydro-1H-pyrrole-3-formamide]	> 10 µM	> 10 µM	> 10 µM	< 0.1 µM	> 10 µM
COc1ccc(S(=O)(=O)N2CC=C(C(=O)NO)C2)cc1 [Compound 13, N-hydroxy-1-((4-methoxy-phenyl)sulfonyl) 2,5-dihydro-1H-pyrrole-3-formamide]	< 10 µM	> 10 µM	< 10 µM	< 0.1 µM	< 10 µM
COc1cccc(S(=O)(=O)N2CC=C(C(=O)NO)C2)c1 [Compound 14, N-hydroxy-1-((3-methoxy-phenyl)sulfonyl) 2,5-dihydro-1H-pyrrole-3-formamide]	< 10 µM	> 10 µM	< 10 µM	< 0.1 µM	< 10 µM
Cc1ccc(S(=O)(=O)N2CC=C(C(=O)NO)C2)cc1 [Compound 15, N-hydroxy-1-((4-methylphenyl)sulfonyl)2,5-dihydro-1H-pyrrole-3-formamide]	< 10 µM	> 10 µM	< 10 µM	< 0.1 µM	< 10 µM
Cc1cccc(S(=O)(=O)N2CC=C(C(=O)NO)C2)c1 [Compound 16, N-hydroxy-1-((3-methylphenyl)sulfonyl)2,5-dihydro-1H-pyrrole-3-formamide]	> 10 µM	> 10 µM	< 10 µM	< 0.1 µM	> 10 µM
O=C(NO)C1=CCN(S(=O)(=O)c2ccc(C3=CCNCC3)cc2)C1 [Compound 18, N-hydroxy-1-((4-(1,2,3,6-tetrahydro-pyridine-4-yl)phenyl)sulfonyl) 2,5-dihydro-1H-pyrrole-3-formamide]	> 10 µM	> 10 µM	> 10 µM	0.1 to 0.3 µM	> 10 µM
Nc1ccccc1NC(=O)C1=CCN(S(=O)(=O)c2ccccc2)C1 [Compound 19, N-(2-aminophenyl)-1-(benzenesulfonyl)-2,5-dihydro-1H-pyrrole-3-formamide]	> 10 µM	> 10 µM	> 10 µM	> 0.5 µM	> 10 µM

More lines, main results first:

IC50 (Hep3B cells)	IC50 (Huh7 cells)	IC50 (HepG2 cells)	SMILES	IC50 [1]	IC50 (Li7 cells)
> 10 µM	> 10 µM	> 10 µM	O=C(NO)C1=CCN(S(=O)(=O)c2ccc(C(=O)O)cc2)C1 [Compound 7]	< 0.1 µM	> 10 µM
> 10 µM	> 10 µM	> 10 µM	CNC(=O)c1ccc(S(=O)(=O)N2CC=C(C(=O)NO)C2)cc1 [Compound 9, N-hydroxy-1-((4-(methylaminecarbonyl)phenyl)sulfonyl) 2,5-dihydro-1H-pyrrole-3-formamide]	< 0.1 µM	> 10 µM
> 10 µM	> 10 µM	< 10 µM	O=C(NO)C1=CCN(S(=O)(=O)c2cccc(F)c2)C1 [Compound 12, N-hydroxy-1-((3-fluoro-phenyl)sulfonyl) 2,5-dihydro-1H-pyrrole-3-formamide]	< 0.1 µM	> 10 µM
> 10 µM	> 10 µM	> 10 µM	COc1ccc(S(=O)(=O)N2CC=C(C(=O)NO)C2)cc1OC [Compound 17, N-hydroxy-1-((3,4-dimethoxyphenyl)sulfonyl) 2,5-dihydro-1H-pyrrole-3-formamide]	0.1 to 0.3 µM	> 10 µM
